Measurements: PubChem BioAssay AID1259407 (Chemical Carcinogenesis Research Information System (CCRIS), 2018)
Entries after “also recorded” stand apart in the source; their conditions may differ. Calls of active or inactive are those of the source. No rule for the calls is given here.

System: CCRIS mutagenicity, Ames/micronucleus/aberration tests
Experiment: CCRIS mutagenicity studies

**Q.** How did the mutagenic call (End Point: IN VITRO MICRONUCLEUS, Test System: CHL/IU CELLS, Metabolic Activation: RAT, LIVER, S-9, PHENOBARBITAL AND 5,6-BENZOFLAVONE) turn out when `Cn1c(N)nc2ncc(-c3ccccc3)cc21` was run?
**A.** Its mutagenic call is “active; positive”.

**Q.** And the mutagenic call (End Point: IN VIVO MICRONUCLEUS, Test System: BONE MARROW POLYCHROMATIC ERYTHROCYTES, Species: MOUSE, Strain/Sex: BALB/C/MALE, Route: IP INJECTION)?
**A.** Its mutagenic call is “active; positive”.

**Q.** What about the mutagenic call (End Point: IN VIVO MICRONUCLEUS, Test System: SPLENOCYTES, Species: MOUSE, Strain/Sex: BALB/C, Route: IO) of the same compound?
**A.** Its mutagenic call is “active; positive only for 48.8 mg dose at either 2 or 16 days after treatment”.

**Q.** What about the mutagenic call (Test System: AMES SALMONELLA TYPHIMURIUM, Strain/Indicator: TA98(1,8-DNP6), Metabolic Activation: RAT, LIVER, S-9, AROCLOR, Method: PREINCUBATION) of the same compound?
**A.** The mutagenic call was “active; positive”.

**Q.** And the mutagenic call (Test System: AMES SALMONELLA TYPHIMURIUM, Strain/Indicator: TA98(1,8-DNP6), Metabolic Activation: RAT, LIVER, S-9, Method: STANDARD PLATE)?
**A.** The mutagenic call was “active; positive”.

**Q.** What about the mutagenic call (Test System: AMES SALMONELLA TYPHIMURIUM, Strain/Indicator: TA98, Metabolic Activation: HUMAN, LIVER, MICROSOMES, Method: PREINCUBATION) of the same compound?
**A.** The mutagenic call was “active; positive”.

**Q.** What about the mutagenic call (Test System: AMES SALMONELLA TYPHIMURIUM, Strain/Indicator: TA98, Metabolic Activation: MONKEY, LIVER, MICROSOMES, Method: PREINCUBATION) of the same compound?
**A.** Its mutagenic call is “active; positive”.

**Q.** And the mutagenic call (Test System: AMES SALMONELLA TYPHIMURIUM, Strain/Indicator: TA98, Metabolic Activation: MOUSE, KIDNEY, S-9, PHENETHYL ISOTHIOCYANATE, Method: STANDARD PLATE)?
**A.** Its mutagenic call is “inactive; negative”.

**Q.** What about the mutagenic call (Test System: AMES SALMONELLA TYPHIMURIUM, Strain/Indicator: TA98, Metabolic Activation: MOUSE, KIDNEY, S-9, Method: STANDARD PLATE) of the same compound?
**A.** The mutagenic call was “inactive; negative”.

**Q.** What about the mutagenic call (Test System: AMES SALMONELLA TYPHIMURIUM, Strain/Indicator: TA98, Metabolic Activation: MOUSE, LIVER, S-9, PHENETHYL ISOTHIOCYANATE, Method: STANDARD PLATE) of the same compound?
**A.** The mutagenic call was “active; positive”.

**Q.** What about the mutagenic call (Test System: AMES SALMONELLA TYPHIMURIUM, Strain/Indicator: TA98, Metabolic Activation: MOUSE, LIVER, S-9, Method: STANDARD PLATE) of the same compound?
**A.** Its mutagenic call is “active; positive”.

**Q.** And the mutagenic call (Test System: AMES SALMONELLA TYPHIMURIUM, Strain/Indicator: TA98, Metabolic Activation: MOUSE, LUNG, S-9, PHENETHYL ISOTHIOCYANATE, Method: STANDARD PLATE)?
**A.** The mutagenic call was “inactive; negative”.

**Q.** What about the mutagenic call (Test System: AMES SALMONELLA TYPHIMURIUM, Strain/Indicator: TA98, Metabolic Activation: MOUSE, LUNG, S-9, Method: STANDARD PLATE) of the same compound?
**A.** Its mutagenic call is “inactive; negative”.

**Q.** And the mutagenic call (Test System: AMES SALMONELLA TYPHIMURIUM, Strain/Indicator: TA98, Metabolic Activation: RAT, COLON, S-9, 3-METHYLCHOLANTHRENE, Method: STANDARD PLATE)?
**A.** The mutagenic call was “inactive; negative”.

**Q.** What about the mutagenic call (Test System: AMES SALMONELLA TYPHIMURIUM, Strain/Indicator: TA98, Metabolic Activation: RAT, LIVER, HEPATOCYTES, AROCLOR 1254, Method: PREINCUBATION) of the same compound?
**A.** The mutagenic call was “active; positive”.

**Q.** What about the mutagenic call (Test System: AMES SALMONELLA TYPHIMURIUM, Strain/Indicator: TA98, Metabolic Activation: RAT, LIVER, HEPATOCYTES, Method: PREINCUBATION) of the same compound?
**A.** Its mutagenic call is “active; positive”.

**Q.** What about the mutagenic call (Test System: AMES SALMONELLA TYPHIMURIUM, Strain/Indicator: TA98, Metabolic Activation: RAT, LIVER, MICROSOMES, Method: PREINCUBATION) of the same compound?
**A.** The mutagenic call was “active; positive”.

**Q.** And the mutagenic call (Test System: AMES SALMONELLA TYPHIMURIUM, Strain/Indicator: TA98, Metabolic Activation: RAT, LIVER, S-9, AROCLOR 1254, Method: PREINCUBATION)?
**A.** The mutagenic call was “active; positive”.

**Q.** And the mutagenic call (Test System: AMES SALMONELLA TYPHIMURIUM, Strain/Indicator: TA98, Metabolic Activation: RAT, LIVER, S-9, AROCLOR, Method: PREINCUBATION)?
**A.** The mutagenic call was “active; positive”.

**Q.** What about the mutagenic call (Test System: AMES SALMONELLA TYPHIMURIUM, Strain/Indicator: TA98, Metabolic Activation: RAT, LIVER, S-9, Method: STANDARD PLATE) of the same compound?
**A.** The mutagenic call was “active; positive”.

**Q.** And the mutagenic call (Test System: AMES SALMONELLA TYPHIMURIUM, Strain/Indicator: TA98, Metabolic Activation: S-9, Method: MICROSUSPENSION)?
**A.** The mutagenic call was “active; positive”.

**Q.** And the mutagenic call (Test System: AMES SALMONELLA TYPHIMURIUM, Strain/Indicator: TA100, Metabolic Activation: RAT, LIVER, S-9, AROCLOR 1254, Method: PREINCUBATION)?
**A.** Its mutagenic call is “inactive; negative”.

**Q.** What about the mutagenic call (Test System: AMES SALMONELLA TYPHIMURIUM, Strain/Indicator: TA1978, Metabolic Activation: S-9 (0.5 ML), Method: MICROSUSPENSION) of the same compound?
**A.** The mutagenic call was “active; positive”.

**Q.** And the mutagenic call (Test System: AMES SALMONELLA TYPHIMURIUM, Strain/Indicator: TA1978, Metabolic Activation: S-9 (2 MG/ML, 0.1 ML), Method: MICROSUSPENSION)?
**A.** The mutagenic call was “inactive; negative”.

**Q.** What about the mutagenic call (Test System: AMES SALMONELLA TYPHIMURIUM, Strain/Indicator: TA1978, Metabolic Activation: S-9 (2 MG/ML, 0.25 ML), Method: MICROSUSPENSION) of the same compound?
**A.** Its mutagenic call is “active; positive”.

**Q.** And the mutagenic call (Test System: AMES SALMONELLA TYPHIMURIUM, Strain/Indicator: YG1019, Metabolic Activation: RAT LIVER S-9, AROCLOR, Method: PREINCUBATION)?
**A.** Its mutagenic call is “active; positive”.

**Q.** And the mutagenic call (Test System: AMES SALMONELLA TYPHIMURIUM, Strain/Indicator: YG1024, Metabolic Activation: RAT, COLON, S-9, 3-METHYLCHOLANTHRENE, Method: STANDARD PLATE)?
**A.** Its mutagenic call is “inactive; negative”.

**Q.** And the mutagenic call (Test System: AMES SALMONELLA TYPHIMURIUM, Strain/Indicator: YG1024, Metabolic Activation: RAT, LIVER, S-9, AROCLOR, Method: PREINCUBATION)?
**A.** Its mutagenic call is “active; positive”.

**Q.** And the mutagenic call (Test System: CHINESE HAMSTER V-79, Strain/Indicator: V-79/6-THIOGUANINE, Metabolic Activation: HAMSTER, PANCREAS DUCT, EPITHELIAL CELLS)?
**A.** Its mutagenic call is “active; positive”.

**Q.** What about the mutagenic call (Test System: CHINESE HAMSTER V-79, Strain/Indicator: V-79/6-THIOGUANINE, Metabolic Activation: HUMAN, PANCREAS DUCT, EPITHELIAL CELLS) of the same compound?
**A.** The mutagenic call was “active; positive”.

**Q.** And the mutagenic call (Test System: CHINESE HAMSTER V-79, Strain/Indicator: XEMH1A2-MZ (HPRT)/6-THIOGUANINE, Metabolic Activation: NONE)?
**A.** The mutagenic call was “active; positive”.

**Q.** And the mutagenic call (Test System: HUMAN COLON CANCER CELLS, Strain/Indicator: DLD-1 (HPRT)/6-THIOGUANINE, Metabolic Activation: MOUSE LIVER S-9, PHENOBARBITAL AND 5,6-BENZOFLAVONE, Method: SUSPENSION/PLATE)?
**A.** The mutagenic call was “active; positive”.

**Q.** And the mutagenic call (Test System: HUMAN COLON CANCER CELLS, Strain/Indicator: HCT116 (HPRT)/6-THIOGUANINE, Metabolic Activation: MOUSE LIVER S-9, PHENOBARBITAL AND 5,6-BENZOFLAVONE, Method: SUSPENSION/PLATE)?
**A.** The mutagenic call was “active; positive”.

**Q.** And the mutagenic call (Test System: UDS HUMAN HEPATOCYTES, Strain/Indicator: THY INCORP, Metabolic Activation: NONE, Method: AUTORADIOGRAPHY)?
**A.** Its mutagenic call is “active; positive”.

**Q.** What about the mutagenic call (Test System: UDS MOUSE HEPATOCYTES, Strain/Indicator: THY INCORP, Metabolic Activation: NONE, Method: AUTORADIOGRAPHY) of the same compound?
**A.** Its mutagenic call is “active; positive”.

**Q.** Which mutagenic call (Test System: AMES SALMONELLA TYPHIMURIUM, Strain/Indicator: TA98, Metabolic Activation: NONE) does the source give for `O=C(O)CC(Cl)C(=O)O` (centres undefined) here?
**A.** The mutagenic call was “inactive; negative”.

**Q.** What about the mutagenic call (Test System: AMES SALMONELLA TYPHIMURIUM, Strain/Indicator: TA98, Metabolic Activation: RAT, LIVER, S-9, AROCLOR 1254) of the same compound?
**A.** Its mutagenic call is “inactive; negative”.

**Q.** And the mutagenic call (Test System: AMES SALMONELLA TYPHIMURIUM, Strain/Indicator: TA100, Metabolic Activation: NONE)?
**A.** The mutagenic call was “inactive; negative”.

**Q.** And the mutagenic call (Test System: AMES SALMONELLA TYPHIMURIUM, Strain/Indicator: TA100, Metabolic Activation: RAT, LIVER, S-9, AROCLOR 1254)?
**A.** The mutagenic call was “inactive; negative”.

**Q.** What about the mutagenic call (Test System: AMES SALMONELLA TYPHIMURIUM, Strain/Indicator: TA102, Metabolic Activation: NONE) of the same compound?
**A.** Its mutagenic call is “inactive; negative”.

**Q.** What about the mutagenic call (Test System: AMES SALMONELLA TYPHIMURIUM, Strain/Indicator: TA102, Metabolic Activation: RAT, LIVER, S-9, AROCLOR 1254) of the same compound?
**A.** The mutagenic call was “inactive; negative”.

**Q.** And the mutagenic call (Test System: AMES SALMONELLA TYPHIMURIUM, Strain/Indicator: TA104, Metabolic Activation: NONE)?
**A.** The mutagenic call was “inactive; negative”.

**Q.** And the mutagenic call (Test System: AMES SALMONELLA TYPHIMURIUM, Strain/Indicator: TA104, Metabolic Activation: RAT, LIVER, S-9, AROCLOR 1254)?
**A.** Its mutagenic call is “inactive; negative”.

**Q.** `CCNc1cc(NC(C)=O)c(N=Nc2c(Cl)cc([N+](=O)[O-])cc2[N+](=O)[O-])cc1OC` was tested. Which mutagenic call (End Point: IN VITRO CHROMOSOMAL ABERRATIONS, Test System: CHL CELLS, Metabolic Activation: NONE) did it give?
**A.** The mutagenic call was “inactive; negative; precipitation of test chemical observed above 0.01 mg/ml; also recorded: active; positive (ploidy changes); precipitation of test chemical observed above 0.01 mg”.
